Experimental data published in US8722656B2, “Cephalosporins useful as antibacterial agents” (Zoetis LLC, priority 2011, dated 2014).
In brackets after ≈: the same amount, converted by molar mass.

Assays:
[1] = system: E. coli 25922; test: Dilution antimicrobial susceptibility test (M07-A8), E. coli; format: cell-based, Escherichia coli; conditions: for MIC: Escherichia coli, antibacterial activity by dilution susceptibility test, isolate 25922; for E. coli/P. multocida: selectivity for P. multocida over E. coli (ratio of the two values)
Procedure: (§1) Compounds of the present invention were tested against an assortment of Gram-negative and Gram-positive organisms using the industrial standard techniques described in Methods for Dilution Antimicrobial Susceptibility Tests for Bacteria That grow Aerobically; Approved Standard-Eighth Edition, […]-A8, Vol. 29 No. 2 Replaces […]-A7 Vol. 26 No. 2. […] When comparing the activity against these isolates with that of the marketed human health drug of cefepime (screened in the same panel), the exemplified compounds of the present invention show >200 times more selectivity over E. coli.

[2] = system: M. haemo 43411; test: Dilution antimicrobial susceptibility test (M07-A8), M. haemolytica; format: cell-based; conditions: Mannheimia haemolytica; antibacterial activity by dilution susceptibility test, isolate 43411
Procedure: as §1

[3] = system: P. multo 43719; test: Dilution antimicrobial susceptibility test (M07-A8), P. multocida; format: cell-based; conditions: Pasteurella multocida; antibacterial activity by dilution susceptibility test, isolate 43719
Procedure: as §1

| Compound | MIC [1] [µg/mL] | E. coli/P. multocida [1] | MIC [2] [µg/mL] | MIC [3] [µg/mL] |
| --- | --- | --- | --- | --- |
| CO/N=C(\C(=O)N[C@@H]1C(=O)N2C(C(=O)O)=C(Cc3cccc(CSC(C)=O)c3C)CS[C@H]12)c1csc(N)n1 [Example 1, (6R,7R)-3-{3-[(acetylsulfanyl)methyl]-2-methylbenzyl}-7-{[(2Z)-2-(2-amino-1,3-thiazol-4-yl)-2-(methoxyimino)acetyl]amino}-8-oxo-5-thia-1-azabicyclo[4.2.0]oct-2-ene-2-carboxylic acid] | 16 (≈ 27.8 µM) | 533 | 0.06 (≈ 0.104 µM) | 0.03 (≈ 0.0521 µM) |
| CO/N=C(\C(=O)N[C@@H]1C(=O)N2C(C(=O)O)=C(Cc3ccc(CSC(C)=O)cc3C)CS[C@H]12)c1csc(N)n1 [Example 2, (6R,7R)-3-{4-[(acetylsulfanyl)methyl]-2-methylbenzyl}-7-{[(2Z)-2-(2-amino-1,3-thiazol-4-yl)-2-(methoxyimino)acetyl]amino}-8-oxo-5-thia-1-azabicyclo[4.2.0]oct-2-ene-2-carboxylic acid] | 32 (≈ 55.6 µM) | 533 | 0.25 (≈ 0.434 µM) | 0.06 (≈ 0.104 µM) |
| CO/N=C(\C(=O)N[C@@H]1C(=O)N2C(C(=O)O)=C(Cc3cc(CSC(C)=O)ccc3C)CS[C@H]12)c1csc(N)n1 [Example 3, (6R,7R)-3-{5-[(acetylsulfanyl)methyl]-2-methylbenzyl}-7-{[(2Z)-2-(2-amino-1,3-thiazol-4-yl)-2-(methoxyimino)acetyl]amino}-8-oxo-5-thia-1-azabicyclo[4.2.0]oct-2-ene-2-carboxylic acid] | 32 (≈ 55.6 µM) | 256 | 0.25 (≈ 0.434 µM) | 0.125 (≈ 0.217 µM) |
| CO/N=C(\C(=O)N[C@@H]1C(=O)N2C(C(=O)O)=C(Cc3c(C)ccc(CSC(C)=O)c3C)CS[C@H]12)c1csc(N)n1 [Example 4, (6R,7R)-3-{3-[(acetylsulfanyl)methyl]-2,6-dimethylbenzyl}-7-{[(2Z)-2-(2-amino-1,3-thiazol-4-yl)-2-(methoxyimino)acetyl]amino}-8-oxo-5-thia-1-azabicyclo[4.2.0]oct-2-ene-2-carboxylic acid] | 32 (≈ 54.3 µM) | 128 | 0.5 (≈ 0.848 µM) | 0.25 (≈ 0.424 µM) |
| CO/N=C(\C(=O)N[C@@H]1C(=O)N2C(C(=O)O)=C(Cc3c(C)c(CO)cc(CSC(C)=O)c3C)CS[C@H]12)c1csc(N)n1 [Example 5, (6R,7R)-3-{3-[(acetylsulfanyl)methyl]-5-(hydroxymethyl)-2,6-dimethylbenzyl}-7-{[(2Z)-2-(2-amino-1,3-thiazol-4-yl)-2-(methoxyimino)acetyl]amino}-8-oxo-5-thia-1-azabicyclo[4.2.0]oct-2-ene-2-carboxylic acid] | 32 (≈ 51.6 µM) | 533 | 0.125 (≈ 0.202 µM) | 0.06 (≈ 0.0968 µM) |
| CO/N=C(\C(=O)N[C@@H]1C(=O)N2C(C(=O)O)=C(Cc3c(C)cc(CSC(C)=O)cc3C)CS[C@H]12)c1csc(N)n1 [Example 6, (6R,7R)-3-{4-[(acetylsulfanyl)methyl]-2,6-dimethylbenzyl}-7-{[(2Z)-2-(2-amino-1,3-thiazol-4-yl)-2-(methoxyimino)acetyl]amino}-8-oxo-5-thia-1-azabicyclo[4.2.0]oct-2-ene-2-carboxylic acid] | 32 (≈ 54.3 µM) | 128 | 0.5 (≈ 0.848 µM) | 0.25 (≈ 0.424 µM) |
| CO/N=C(\C(=O)N[C@@H]1C(=O)N2C(C(=O)O)=C(Cc3cccc(NC(=O)CSC(C)=O)c3C)CS[C@H]12)c1csc(N)n1 [Example 7, (6R,7R)-3-(3-{[(acetylsulfanyl)acetyl]amino}-2-methylbenzyl)-7-{[(2Z)-2-(2-amino-1,3-thiazol-4-yl)-2-(methoxyimino)acetyl]amino}-8-oxo-5-thia-1-azabicyclo[4.2.0]oct-2-ene-2-carboxyl is acid] | 16 (≈ 25.9 µM) | 266 | 0.06 (≈ 0.097 µM) | 0.06 (≈ 0.097 µM) |
| CO/N=C(\C(=O)N[C@@H]1C(=O)N2C(C(=O)O)=C(Cc3cc(NC(=O)CSC(C)=O)ccc3C)CS[C@H]12)c1csc(N)n1 [Example 8, (6R,7R)-3-(5-{[(acetylsulfanyl)acetyl]amino}-2-methylbenzyl)-7-{[(2Z)-2-(2-amino-1,3-thiazol-4-yl)-2-(methoxyimino)acetyl]amino}-8-oxo-5-thia-1-azabicyclo[4.2.0]oct-2-ene-2-carboxyl is acid] | 16 (≈ 25.9 µM) | 266 | 0.06 (≈ 0.097 µM) | 0.06 (≈ 0.097 µM) |
| CCCN(C(=O)CSC(C)=O)c1ccc(CC2=C(C(=O)O)N3C(=O)[C@@H](NC(=O)/C(=N\OC)c4csc(N)n4)[C@H]3SC2)cc1 [Example 9] | 64 (≈ 99 µM) | 256 | 0.5 (≈ 0.773 µM) | 0.25 (≈ 0.387 µM) |
| CO/N=C(\C(=O)N[C@@H]1C(=O)N2C(C(=O)O)=C(Cc3cccc(N(C)C(=O)CSC(C)=O)c3)CS[C@H]12)c1csc(N)n1 [Example 10] | 32 (≈ 51.7 µM) | 533 | 0.125 (≈ 0.202 µM) | 0.06 (≈ 0.097 µM) |
| CO/N=C(\C(=O)N[C@@H]1C(=O)N2C(C(=O)O)=C(Cc3cccc(NC(=O)CSC)c3)CS[C@H]12)c1csc(N)n1 [Example 11, (6R,7R)-7-{[(2Z)-2-(2-amino-1,3-thiazol-4-yl)-2-(methoxyimino)acetyl]amino}-3-(3-{[(methylsulfanyl)acetyl]amino}benzyl)-8-oxo-5-thia-1-azabicyclo[4.2.0]oct-2-ene-2-carboxylic acid] | 4 (≈ 6.94 µM) | 133 | 0.03 (≈ 0.052 µM) | 0.03 (≈ 0.052 µM) |
| CO/N=C(\C(=O)N[C@@H]1C(=O)N2C(C(=O)O)=C(Cc3cccc(NC(=O)CSC(C)=O)c3)CS[C@H]12)c1csc(N)n1 [Example 12, (6R,7R)-3-(3-{[(acetylsulfanyl)acetyl]amino}benzyl)-7-{[(2Z)-2-(2-amino-1,3-thiazol-4-yl)-2-(methoxyimino)acetyl]amino}-8-oxo-5-thia-1-azabicyclo[4.2.0]oct-2-ene-2-carboxylic acid] | 8 (≈ 13.2 µM) | 133 | 0.03 (≈ 0.0496 µM) | 0.06 (≈ 0.0992 µM) |
| CO/N=C(\C(=O)N[C@@H]1C(=O)N2C(C(=O)O)=C(Cc3cccc(N(C(=O)CS)C(C)C)c3)CS[C@H]12)c1csc(N)n1 [Example 13, (6R,7R)-7-{[(2Z)-2-(2-amino-1,3-thiazol-4-yl)-2-(methoxyimino)acetyl]amino}-8-oxo-3-{3-[propan-2-yl(sulfanylacetyl)amino]benzyl}-5-thia-1-azabicyclo[4.2.0]oct-2-ene-2-carboxylic acid] | 8 (≈ 13.2 µM) | 266 | 0.06 (≈ 0.0992 µM) | 0.03 (≈ 0.0496 µM) |
| CO/N=C(\C(=O)N[C@@H]1C(=O)N2C(C(=O)O)=C(Cc3cc(NS(C)(=O)=O)cc(C)c3C)CS[C@H]12)c1csc(N)n1 [Example 14, (6R,7R)-7-{[(2Z)-2-(2-amino-1,3-thiazol-4-yl)-2-(methoxyimino)acetyl]amino}-3-{2,3-dimethyl-5-[(methylsulfonyl)amino]benzyl}-8-oxo-5-thia-1-azabicyclo[4.2.0]oct-2-ene-2-carboxylic acid] | 16 (≈ 26.9 µM) | 533 | 0.06 (≈ 0.101 µM) | 0.03 (≈ 0.0504 µM) |
| CO/N=C(\C(=O)N[C@@H]1C(=O)N2C(C(=O)O)=C(Cc3cc(NS(C)(=O)=O)c(C)cc3C)CS[C@H]12)c1csc(N)n1 [Example 15, (6R,7R)-7-{[(2Z)-2-(2-amino-1,3-thiazol-4-yl)-2-(methoxyimino)acetyl]amino}-3-{2,4-dimethyl-5-[(methylsulfonyl)amino]benzyl}-8-oxo-5-thia-1-azabicyclo[4.2.0]oct-2-ene-2-carboxylic acid] | 32 (≈ 53.8 µM) | 256 | 0.5 (≈ 0.841 µM) | 0.125 (≈ 0.21 µM) |
| CO/N=C(\C(=O)N[C@@H]1C(=O)N2C(C(=O)O)=C(Cc3cccc(N(C)S(C)(=O)=O)c3)CS[C@H]12)c1csc(N)n1 [Example 16, (6R,7R)-7-{[(2Z)-2-(2-amino-1,3-thiazol-4-yl)-2-(methoxyimino)acetyl]amino}-3-{3-[methyl(methylsulfonyl)amino]benzyl}-8-oxo-5-thia-1-azabicyclo[4.2.0]oct-2-ene-2-carboxylic acid] | 16 (≈ 27.6 µM) | 533 | 0.03 (≈ 0.0517 µM) | 0.03 (≈ 0.0517 µM) |
| CO/N=C(\C(=O)N[C@@H]1C(=O)N2C(C(=O)O)=C(Cc3cccc(NS(C)(=O)=O)c3)CS[C@H]12)c1csc(N)n1 [Example 17, (6R,7R)-7-{[(2Z)-2-(2-amino-1,3-thiazol-4-yl)-2-(methoxyimino)acetyl]amino}-3-{3-[(methylsulfonyl)amino]benzyl}-8-oxo-5-thia-1-azabicyclo[4.2.0]oct-2-ene-2-carboxylic acid] | 8 (≈ 14.1 µM) | 266 | 0.015 (≈ 0.0265 µM) | 0.03 (≈ 0.0529 µM) |
| CO/N=C(\C(=O)N[C@@H]1C(=O)N2C(C(=O)O)=C(Cc3cc(NS(C)(=O)=O)cc(OC)c3)CS[C@H]12)c1csc(N)n1 [Example 18, (6R,7R)-7-{[(2Z)-2-(2-amino-1,3-thiazol-4-yl)-2-(methoxyimino)acetyl]amino}-3-{3-methoxy-5-[(methylsulfonyl)amino]benzyl}-8-oxo-5-thia-1-azabicyclo[4.2.0]oct-2-ene-2-carboxylic acid] | 16 (≈ 26.8 µM) | 266 | 0.08 (≈ 0.134 µM) | 0.06 (≈ 0.101 µM) |
| CO/N=C(\C(=O)N[C@@H]1C(=O)N2C(C(=O)O)=C(Cc3cc(C)cc(NS(C)(=O)=O)c3)CS[C@H]12)c1csc(N)n1 [Example 19, (6R,7R)-7-{[(2Z)-2-(2-amino-1,3-thiazol-4-yl)-2-(methoxyimino)acetyl]amino}-3-{3-methyl-5-[(methylsulfonyl)amino]benzyl}-8-oxo-5-thia-1-azabicyclo[4.2.0]oct-2-ene-2-carboxylic acid] | 8 (≈ 13.8 µM) | 1000 | 8 (≈ 13.8 µM) | 0.008 (≈ 0.0138 µM) |
